Where two headings read alike, the source gives them in different places.
Assays:
AAPH-intoxication mice = experiment: AAPH-intoxication mouse model: survival; settings: male ICR mice, AAPH 125 mg/kg i.p., 7 days
SEB-induced shock mice = settings: mouse, in vivo
TNF-α-induced shock mice = experiment: TNF-α-induced shock mouse model: survival; settings: human TNF-α + D-galactosamine i.p., 20 mg/kg i.v. immediately after, 7 days
[1] = system: TNF-α-stimulated mouse peritoneal macrophage; experiment: IL-6 production from TNF-α-stimulated mouse peritoneal macrophage; type: cell-based; settings: 10 ng/mL TNF-α, 24 h
[2] = system: human vascular endothelial cells (HUEC); experiment: Active oxygen production in endothelial cells under high glucose load; type: cell-based; settings: 30 mM glucose load, control 91.2, glucose alone 140.5
Method: Next, glucose was added to a glucose concentration of 30 mM on each plate, and the cells were CO2 incubated for 1 hour at 37° C. After completion of culture the cells were collected and intracellular active oxygen was measured by FACS Calibur (Flow Cytometry System; Becton Dickinson Japan) using […] (intracellular active oxygen measurement kit; […] Pharma).

LPS-induced shock mice = settings: male ICR mice, LPS 12 mg/kg i.v., 20 mg/kg i.v. 6 h after LPS
HWEC cells = experiment: IL-8 production in endothelial cells under high glucose load; type: cell-based, human; settings: 30 mM glucose load, 2 h, glucose alone 1196 pg/mL

Compound: Cc1cc2nc3c(=O)[nH]c(=O)nc-3n(C[C@H](O)[C@H](O)[C@H](O)COP(=O)([O-])O)c2cc1C.[Na+] [5′-FMN-Na, riboflavin-5′-phosphate sodium ester]
- Survival number (AAPH-intoxication mice; 20 mg/kg i.p. (−24 h, 0)): 7/10
- Survival rate (%) (AAPH-intoxication mice; 20 mg/kg i.p. (−24 h, 0), P < 0.05 vs. Saline): 70%
- Survival number (AAPH-intoxication mice; 20 mg/kg i.v. (−24 h, 0, +1 h)): 6/10
- Survival rate (%) (AAPH-intoxication mice; 20 mg/kg i.v. (−24 h, 0, +1 h)): 60%
- plasma IL-6 concentration (SEB-induced shock mice): suppression effect
- plasma INF-γ concentration (SEB-induced shock mice): suppression effect
- plasma MIP-2 concentration (SEB-induced shock mice): suppression effect
- Survival number (TNF-α-induced shock mice; female ICR mice): 7/10
- Survival rate (%) (TNF-α-induced shock mice; female ICR mice): 70%
- Survival number (TNF-α-induced shock mice; male BALB/c mice): 6/10
- Survival rate (%) (TNF-α-induced shock mice; male BALB/c mice, P < 0.05 vs. Saline, 20 mg/kg): 60%
- TNF-α-induced IL-6 production ([1]; 1.56 μg/mL 5′-FMN-Na): suppressed
- TNF-α-induced IL-6 production ([1]; 25 μg/mL 5′-FMN-Na): suppressed
- fluorescent strength (mean fluorescence), intracellular active oxygen ([2]; 0.1 μg/mL): 114.2
- fluorescent strength (mean fluorescence), intracellular active oxygen ([2]; 0.39 μg/mL): 125.0
- fluorescent strength (mean fluorescence), intracellular active oxygen ([2]; 1.56 μg/mL): 111.9
- fluorescent strength (mean fluorescence), intracellular active oxygen ([2]; 6.25 μg/mL): 89.5
- plasma GM-CSF concentration (LPS-induced shock mice; 21 h after LPS (second peak)): tended to depress
- plasma MIP-2 concentration (LPS-induced shock mice; after 9 h, maintained after 21 h): had declined
- plasma IL-1β concentration (LPS-induced shock mice; between 9 and 12 h after LPS, vs control): decreased rapidly
- plasma NO level (total NO2 and NO3) (LPS-induced shock mice; between 9 and 18 h): no suppression effect
- plasma INF-γ concentration (LPS-induced shock mice; between 9 and 18 h after LPS, vs control): declined rapidly
- plasma NO level (total NO2 and NO3) (LPS-induced shock mice; between 21 and 24 h): had a suppression effect
- plasma IL-6 concentration (LPS-induced shock mice; maintained after 21 h, vs control): rapid decline
- plasma MCP-1 concentration (LPS-induced shock mice; maintained until 21 h after LPS): depressed
- plasma IL-10 concentration (LPS-induced shock mice; second peak (21 h after LPS)): depressed
- plasma TNF-α concentration (LPS-induced shock mice; second peak (21 h after LPS)): depressed
- IL-8 concentration in the medium (HWEC cells; 6.25 μg/mL): 297 pg/mL
- IL-8 concentration in the medium (HWEC cells; 25 μg/mL): 168 pg/mL

Reference: US20050208124A1, “Drugs containing riboflavin-type compounds” (priority 2003, published 2005)
